pKi: −log10 of the molar value.
Molecular target: T1, Androgen receptor (Rattus norvegicus, UniProt P15207)
T1 sequence (P15207 whole entry): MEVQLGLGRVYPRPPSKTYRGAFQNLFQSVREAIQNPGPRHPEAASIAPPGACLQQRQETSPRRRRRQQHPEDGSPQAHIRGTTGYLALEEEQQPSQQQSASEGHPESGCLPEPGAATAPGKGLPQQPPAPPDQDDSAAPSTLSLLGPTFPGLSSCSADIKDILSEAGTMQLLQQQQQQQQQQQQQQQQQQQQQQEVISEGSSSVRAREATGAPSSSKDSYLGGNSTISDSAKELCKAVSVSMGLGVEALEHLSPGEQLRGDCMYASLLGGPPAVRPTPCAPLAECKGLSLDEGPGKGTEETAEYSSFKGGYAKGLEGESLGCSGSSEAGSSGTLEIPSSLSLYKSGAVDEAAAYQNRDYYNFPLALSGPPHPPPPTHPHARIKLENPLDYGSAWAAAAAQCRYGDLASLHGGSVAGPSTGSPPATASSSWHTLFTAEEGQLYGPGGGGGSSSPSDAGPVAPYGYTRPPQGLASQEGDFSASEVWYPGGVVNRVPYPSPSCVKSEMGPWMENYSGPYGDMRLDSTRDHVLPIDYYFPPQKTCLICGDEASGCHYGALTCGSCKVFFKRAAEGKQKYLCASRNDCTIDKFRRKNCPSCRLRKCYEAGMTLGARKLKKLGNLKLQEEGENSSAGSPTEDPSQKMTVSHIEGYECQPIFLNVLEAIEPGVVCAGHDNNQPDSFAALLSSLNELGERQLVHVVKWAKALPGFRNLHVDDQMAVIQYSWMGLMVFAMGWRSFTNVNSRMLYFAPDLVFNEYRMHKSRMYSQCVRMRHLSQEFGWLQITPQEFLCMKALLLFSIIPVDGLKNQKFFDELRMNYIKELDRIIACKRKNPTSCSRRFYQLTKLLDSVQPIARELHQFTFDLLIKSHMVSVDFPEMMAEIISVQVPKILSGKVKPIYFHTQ
Test: Inhibition of rat prostate cytosolic androgen receptor

Row | SMILES | pKi
1 | C=CCN1C(=O)N(c2ccc(C#N)c(I)c2)C(=O)C1(C)C | 7.23
2 | CCCCN1C(=O)N(c2ccc(C#N)c(I)c2)C(=O)C1(C)C | 7.11
3 | COCCN1C(=S)N(c2ccc(C#N)c(I)c2)C(=O)C1(C)C | 7.43
4 | CC1(C)C(=O)N(c2ccc(C#N)c(I)c2)C(=O)N1CCCCO | 8.70
5 | CN1C(=S)N(c2ccc(C#N)c(I)c2)C(=O)C1(C)C | 8.60
6 | CC1(C)C(=O)N(c2ccc(C#N)c(I)c2)C(=O)N1CCCc1ccccc1 | 6.19
7 | CCCCN1C(=S)N(c2ccc(C#N)c(I)c2)C(=O)C1(C)C | 6.93
8 | CC1(C)C(=O)N(c2ccc(C#N)c(I)c2)C(=S)N1Cc1ccccc1 | 6.66

— ChEMBL document CHEMBL1137917, “Synthesis and structure-activity investigation of iodinated arylhydantoins and arylthiohydantoins for development as androgen receptor radioligands” (Bioorg Med Chem Lett, 2004)
